Like-named read-outs stand apart in the source and are kept apart here. Each block holds one compound with its values, some of them ahead of it.
Columns and labels:
His-tagged TDO = target: T1, His-tagged TDO (Homo sapiens, UniProt P48775); experiment: TDO Activity Assay; format: biochemical; conditions: 120 min at 37 °C
T1 construct: His; purchased BPS Bioscience 72035 (kit)
Procedure: Inhibition of tryptophan 2,3-dioxygenase (TDO) was tested using the Universal IDO1/IDO2/TDO Inhibitor Screening Assay Kit (cat# 72035, BPS Bioscience, US). 500 ng His-tagged TDO in TDO Assay Buffer was incubated with Reaction Solution and 50 µM Test Inhibitor (0.5% (v/v) DMSO) for 120 min at 37°C with slow shaking in the dark. Afterwards, absorbance at 321 nm was recorded on the Spark® Multimode Microplate Reader (Tecan, AT), all values were subtracted by the background and normalized to the DMSO control. […]
(v/v) component 2 in component 1) and 50 µM Test Inhibitor (0.5% (v/v) DMSO) for 90 min at 30°C with slow shaking in the dark prior to initiation of the reaction by addition of 20% (v/v) IDO2 Substrate. Samples were incubated for 120 min at 30°C with slow shaking in the dark. […]

HeLa cells = test system: HeLa cells; parameters: method as in ref 9a = [9]; 9; conditions: ref 9a; cited from earlier work
His-tagged IDO2 = target: T2, His-tagged IDO2 (Homo sapiens, UniProt Q6ZQW0); experiment: IDO2 Activity Assay; format: biochemical; conditions: 90 min + 120 min at 30 °C
T2 construct: His; purchased BPS Bioscience 72035 (kit)
T2 sequence (Q6ZQW0 1-407): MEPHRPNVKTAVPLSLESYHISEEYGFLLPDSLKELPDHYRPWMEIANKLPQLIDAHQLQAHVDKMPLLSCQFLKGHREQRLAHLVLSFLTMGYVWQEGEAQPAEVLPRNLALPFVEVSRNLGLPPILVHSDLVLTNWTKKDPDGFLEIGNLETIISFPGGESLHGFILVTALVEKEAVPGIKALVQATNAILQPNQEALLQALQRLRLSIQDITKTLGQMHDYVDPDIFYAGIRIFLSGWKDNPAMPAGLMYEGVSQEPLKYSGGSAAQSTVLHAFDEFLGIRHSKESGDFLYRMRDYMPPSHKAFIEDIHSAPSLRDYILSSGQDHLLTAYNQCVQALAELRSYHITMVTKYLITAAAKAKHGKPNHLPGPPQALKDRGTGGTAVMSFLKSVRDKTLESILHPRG
Procedure: Inhibition of indoleamine 2,3-dioxygenase 2 (IDO2) was tested using the Universal IDO1/IDO2/TDO Inhibitor Screening Assay Kit (cat# 72035, BPS Bioscience, US). 10 µg His-tagged IDO2 in IDO2 Assay Buffer was incubated with Complete IDO2 Reaction Solution (1% (v/v) component 2 in component 1) and 50 µM Test Inhibitor (0.5% (v/v) DMSO) for 90 min at 30°C with slow shaking in the dark prior to initiation of the reaction by addition of 20% (v/v) IDO2 Substrate. Samples were incubated for 120 min at 30°C with slow shaking in the dark. Afterwards, absorbance at 321 nm was recorded on the Spark® Multimode Microplate Reader (Tecan, AT), all values were subtracted by the background and normalized to the DMSO control.

autophagy [1] = experiment: Automated screen: autophagy induction under fed condition; format: cell-based; conditions: automated screening assay
alkaline phosphatase = experiment: Automated screen: alkaline phosphatase; conditions: automated screening assay
Wnt signaling = experiment: Automated screen: Wnt signaling; format: cell-based; conditions: automated screening assay
Kyn levels in HeLa cells = experiment: Manual Kyn assay in HeLa cells (p-DMAB detection); format: cell-based; conditions: IFN-γ, L-Trp, compounds 48 h, p-DMAB, mean n=3 ±SD, read-out: Kyn Assay IC50
Procedure: Mammalian cell lines were maintained at 37°C and 5% CO2 in a humidified atmosphere and sub-cultivated twice a week. All cell lines were tested regularly for mycoplasma contamination and were always free of mycoplasma. BxPC-3 cells (DSMZ#760) were grown in RPMI-1640 medium supplemented with 10% FBS, 2 mM L-glutamine, 1 mM sodium pyruvate, 4.5 g/L glucose, 10 mM HEPES and 1.5 g/L NaHCO3. HeLa cells (DSMZ#57) were cultivated in DMEM supplemented with 10% FBS, 4.5 g/L glucose, 4 mM L-glutamine 1 mM sodium pyruvate, 1% non-essential amino acids, 3.7 g/L NaHCO3. SKOV-3 cells (ATCC#HTB-77) were maintained in modified McCoy’s 5A medium supplemented with 10% FBS, 1.5 mM L-glutamine and 2.2 g/L NaHCO3. […]
For manual testing, BxPC-3, HeLa or SKOV-3 cells (20,000 cells/well, 5,000 cells/well or 6,250 cells/well, respectively) were seeded in 96-well plates (BxPC-3 and HeLa) or 384-well plates (SKOV-3) in medium without phenol red. After 24 h, the IDO1 pathway was induced by addition of 50 ng/mL (BxPC-3 and HeLa) or 17.6 ng/mL IFN-γ (SKOV-3) and 380 µM (BxPC-3), 164.15 µM (HeLa) or 450 µM L-Trp (SKOV-3) with simultaneous treatment with the compounds at the indicated concentrations followed by incubation for 48 h. For the hemin competition assay, hemin was added together with IFN-γ, L-Trp and the compounds. Subsequently, trichloroacetic acid was added to a final concentration of 7% (v/v), the plates were incubated for 15 min at room […]
temperature and centrifuged for 10 min at 1800 x g. Afterwards, an equal volume of freshly prepared 2% (w/v) p-DMAB in glacial acetic acid (Ehrlich reagent) was added prior to measuring the absorbance at 492 nm and 650 nm on the Spark® Multimode Microplate Reader (Tecan, AT).
To determine the Kyn levels, the absorbance of the Kyn-p-DMAB adduct A492 was subtracted by the background absorbance A650 and normalized to the DMSO control. Data analysis was performed using a non-linear regression curve fit and GraphPad Prism 9.0 (GraphPad Software, Inc, US) to generate dose-response curves and obtain IC50 values. […]
Subsequently, 10 mM ascorbic acid, 10 μM methylene blue, 2 mM L-Trp and 100 μg/mL catalase were added and samples were incubated for 60 min at room temperature or 37°C. […]

BMP signaling = experiment: Automated screen: BMP signaling; format: cell-based; conditions: automated screening assay
autophagy [2] = experiment: Automated screen: autophagy induction in the presence of chloroquine; format: cell-based; conditions: automated screening assay
hedgehog signaling = experiment: Automated screen: hedgehog signaling; format: cell-based; conditions: automated screening assay
autophagy [3] = experiment: Automated screen: autophagy inhibition in the presence of rapamycin; format: cell-based; conditions: automated screening assay
glucose uptake = experiment: Automated screen: glucose uptake; format: cell-based; conditions: automated screening assay
[4] = test system: Kyn levels in BxPC-3 cells; experiment: Automated (high-throughput) Kyn assay in BxPC-3 cells (Kyn sensor); format: cell-based
Procedure: Mammalian cell lines were maintained at 37°C and 5% CO2 in a humidified atmosphere and sub-cultivated twice a week. All cell lines were tested regularly for mycoplasma contamination and were always free of mycoplasma. BxPC-3 cells (DSMZ#760) were grown in RPMI-1640 medium supplemented with 10% FBS, 2 mM L-glutamine, 1 mM sodium pyruvate, 4.5 g/L glucose, 10 mM […]
HEPES and 1.5 g/L NaHCO3. […]
High-throughput Kyn assay
Automated screening for modulators of Kyn levels in BxPC-3 cells was performed as published earlier.[2] Briefly, BxPC-3 cells (1,000 cells/well) were seeded in black 1536-well plates prior to incubation for 24 h and subsequent treatment with compounds, 380 µM L-Trp and 50 ng/mL IFN-γ for 48 h. Afterwards, trichloroacetic acid was added to a final concentration of 7% (v/v), the plates were incubated for 10 min at 37°C and centrifuged for 10 min at 1620 x g. Kyn was detected by addition of 17.5 µM Kyn sensor[14] in assay buffer (excitation: 535 nm, emission: […]

purified IDO1 = test system: purified IDO1; parameters: method as in ref 36b = [36]; 36; conditions: ref 36b; cited from earlier work

T1 sequence (P48775 whole entry): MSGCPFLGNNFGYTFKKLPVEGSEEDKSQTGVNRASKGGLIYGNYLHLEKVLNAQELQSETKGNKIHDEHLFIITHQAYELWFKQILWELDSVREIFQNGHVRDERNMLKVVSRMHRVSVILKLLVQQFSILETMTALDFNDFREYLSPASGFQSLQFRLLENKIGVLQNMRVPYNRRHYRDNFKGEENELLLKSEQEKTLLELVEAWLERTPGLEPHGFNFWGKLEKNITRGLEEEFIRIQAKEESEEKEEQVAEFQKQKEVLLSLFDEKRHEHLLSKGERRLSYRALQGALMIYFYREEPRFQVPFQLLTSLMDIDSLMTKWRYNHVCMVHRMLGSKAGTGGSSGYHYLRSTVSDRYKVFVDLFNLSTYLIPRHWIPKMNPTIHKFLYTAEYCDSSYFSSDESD

inhibition of TDO (result in words) (His-tagged TDO; 50 µM): did not inhibit | inhibition of IDO2 (result in words) (His-tagged IDO2; 50 µM): did not inhibit
SMILES: C[C@@H](C(=O)Nc1ccc(Cl)cc1)C1CCC(c2ccnc3ccc(F)cc23)CC1 (stereo partly shown) [BMS-986205]
IC50 (HeLa cells): 4.2 nM

SMILES: CCOC(=O)C1=CC[C@](C(=O)OC)(c2cc3ccccc3n2C)N(S(=O)(=O)c2ccccc2[N+](=O)[O-])[C@@H]1C(=O)OC(C)(C)C [Compound 3b]
autophagy induction under fed condition, IC50/EC50 (autophagy [1]): inactive | autophagy induction under fed condition, inhibition (autophagy [1]): 0.33 ± 0.47% | alkaline phosphatase, IC50/EC50 (alkaline phosphatase): inactive | Wnt signaling, inhibition (Wnt signaling): 45.33 ± 1.89% | IC50 (Kyn levels in HeLa cells; listed as 3b^a): 2440 ± 560 nM | IC50 (Kyn levels in HeLa cells; listed as 3b^b): 660 ± 50 nM | IC50 (Kyn levels in HeLa cells): 490 ± 100 nM | BMP signaling, inhibition (BMP signaling): 37% | autophagy induction in the presence of chloroquine, IC50/EC50 (autophagy [2]): inactive | autophagy induction in the presence of chloroquine, inhibition (autophagy [2]): -3.67 ± 0.94% | hedgehog signaling, IC50/EC50 (hedgehog signaling): 6330 ± 690 nM | hedgehog signaling, inhibition (hedgehog signaling): 73.0 ± 10.0% | autophagy inhibition in the presence of rapamycin, inhibition (autophagy [3]): 10.50 ± 9.50% | glucose uptake, inhibition (glucose uptake): 17% | effect on cellular kynurenine (Kyn) levels ([4]; BxPC-3 cells stimulated with IFN-γ): selectively decreased | kynurenine levels, IC50/EC50 ([4]; automated screening assay): 630 ± 320 nM | kynurenine levels, inhibition ([4]; automated screening assay): 94.0 ± 1%

SMILES: NS(=O)(=O)NCCNc1nonc1C(=NO)Nc1ccc(F)c(Br)c1 [epacadostat]
reduction of TDO activity (His-tagged TDO; 50 μM, n=3): 75.5±4.3% | reduction of IDO2 activity (His-tagged IDO2; 50 μM, n=3): 49.9±0.3% | IC50 (purified IDO1): 73 nM | selectivity over IDO2 (purified IDO1): > 1000 fold | selectivity over TDO (purified IDO1): > 1000 fold
